# From patent US20220249435A1, “Applications of Butyrolactone-I in Preparing Medicine for Preventing Neuroinflammation and/or Memory and Cognitive Disorders” (priority 2021, published 2022)
# Assays:
# Assay type in all cases: in vivo
# GSH = GSH level in brain tissue of zebrafish; conditions: food with 25, 50, 100 mg/kg for 20 days; AlCl3 intraperitoneally; brain supernatant; FIG. 3A
# Procedure: (§1) 75 zebrafish (3.0±0.4 cm) are randomly classified into control group, AlCl3 model group and 3 experimental groups with 15 zebrafish in each group, zebrafish in the experimental group are fed with food with butyrolactone-I content of 25 mg/kg, 50 mg/kg and 100 mg/kg for 20 days. zebrafish in control group and model group are fed the same amount of normal food respectively. 20 days later, after anesthesia, zebrafish in model group and experimental group are injected with AlCl3 solution (4.2 mg/mL, 5μL, pH=5.0±0.2) intraperitoneally, while zebrafish in the control group are injected with the same amount of normal saline. Memory test is performed in T maze 24 hours after injection.
# (§2) 24 hours after the behavior test, the fish are euthanized, and every five fish in each group is a sample. The brain, surrounding tissues and intestines are collected and stored in a refrigerator at −80° C. All samples (except intestinal tract) are homogenized in phosphate buffer solution for further analysis. Centrifuging is conducted at 4° C. for 15 min at 1500 r/min, and the supernatant is collected. The changes of GSH level and AChE activity of tissue biomarkers are detected by using brain supernatant of zebrafish. […] According to OD value, the regression equation of IL-1β and TNF-α standard curves is calculated, and the logistic curve (4 parameters each) is used as a fitting model. […]
# zebrafish = assay: T maze memory test in AlCl3-injected zebrafish
# Procedure: Adult wild AB zebrafish (male: female ratio is 50%: 50%) with good growth of about 6-8 months are acclimated in a 50 L water tank for 2 weeks, the temperature is 25±2° C., the light-dark cycle is 14 hours: 10 hours, and Artemia larvae are fed at 9 am and 2 pm respectively.
# as §1
# 4 days before intraperitoneal injection, 6 fish are randomly selected from each group, and each day, they are trained separately in T maze for 5 minutes to find the eutrophic EC area. […] After 4 days of training, on the 5th day (24 hours after intraperitoneal injection), the behavior of the trained fish is tested in T maze. If the fish enters EC area and stays for more than 30 s, a valid incubation period is recorded. […] The behavioral test is conducted between 10 am and 1 pm. The Microsoft LifeCam Studio 1080p HD camera and powersoft software (Powersoft Co., Ltd., Hong Kong, China) are used to record videos. Supersys software is used to analyze the latent time (s), average swimming speed (cm/s) and the times of entering the EC zone for the first time.
# IL-1β = assay: Level of inflammatory factor IL-1β in brain and peripheral tissues of zebrafish
# Procedure: as §1
# (§3) 24 hours after the behavior test, the fish are euthanized, and every five fish in each group is a sample. The brain, surrounding tissues and intestines are collected and stored in a refrigerator at −80° C. All samples (except intestinal tract) are homogenized in phosphate buffer solution for further analysis. Centrifuging is conducted at 4° C. for 15 min at 1500 r/min, and the supernatant is collected. The changes of GSH level and AChE activity of tissue biomarkers are detected by using brain supernatant of zebrafish. In addition, brain samples and supernatant of peripheral tissues of zebrafish are used to determine the levels of IL-1β and TNF-α. The results are expressed by the activity of AChE per gram of protein and the amount of glutathione per gram of protein. According to OD value, the regression equation of IL-1β and TNF-α standard curves is calculated, and the logistic curve (4 parameters each) is used as a fitting model.
# Graphpad Prism 8.0 is used for mapping, and One-way ANOVA and Dunnett's post hoc test are used to evaluate the differences between model group and control group, experimental group and model group.
# AChE = AChE activity in brain tissue of zebrafish; conditions: food with 25, 50, 100 mg/kg for 20 days; AlCl3 intraperitoneally; brain supernatant; FIG. 3B
# Procedure: as §1, §2
# [1] = tested on: zebrafish intestinal flora; assay: Intestinal flora of zebrafish by 16S V3-V4 sequencing
# Procedure: as §1, §3
# Genomic DNA is extracted from 15 intestinal samples by proteinase K cleavage method, and sent to TinyGene Bio-Tech (ShangHai) Co., Ltd. for sequencing. The selected target gene is 16S V3-V4. According to the requirements of illumina high-throughput sequencing, two-way sequencing is carried out, and the target region and the fusion primer with “5′ linker-barcode-sequencing primer-specific primer-3′” are designed. The fusion primer comprises the following primers: […]
# The library is constructed by a two-step PCR amplification method. First, specific primers (hereinafter described as inner primers) are used to amplify the target fragments, and then gel recovery is carried out on the target fragments. Then, the recovered products are used as templates for secondary PCR amplification (hereinafter described as outer primers for amplification). The purpose of amplification is to add the linker, sequencing primer and barcode needed by illumina platform sequencing to both ends of the target fragment.
# AxyPrepDNA gel recovery kit is used for recovery, FTC-3000™ real-time PCR is used for real-time fluorescence quantification, and then Illumina high-throughput sequencing and bioinformatics analysis are performed. The length of the sequence is 450 bp, and the sequencing result is the original data, and quality of the sequence is evaluated and optimized. Trimmomatic is used for sequence filtering and FLASH for jointing. Then ambiguity, homology and some chimeras generated in PCR are screened by motherur V. 1.39.5, and the optimized sequence for subsequent clustering OTU (operational taxonomic unit) and species information analysis is obtained. Using the software USEARCH, the jointed sequences are clustered into OTU (at 97% similarity level) for later analysis.
# VENN diagram may be used to count the number of common and unique OTU in multiple samples, and may intuitively show the similarity and overlap of OTU numbers of environmental samples. Usually the OTU sample table with a similar level of 97% is selected for analysis.
# Alpha diversity analysis reflects the richness and diversity of communities in the sample, using motheru (http://www.mothur.org/wiki/Schloss SOP#Alpha diversity) to calculate shannon, simpson, chao and ace indices, and using R (3.4.1) language tool to make charts. […]
# TNF-α = assay: Level of inflammatory factor TNF-α in brain tissues of zebrafish; conditions: AlCl3 model, FIGS. 3E-3F
# Procedure: as §1, §2
# [2] = phylum level, oral, AlCl3 model
smiles,measurement,setting,value
COC(=O)[C@@]1(Cc2ccc(O)c(CC=C(C)C)c2)OC(=O)C(O)=C1c1ccc(O)cc1 [butyrolactone-I],GSH level in brain tissue of zebrafish,GSH,increase GSH level in brain tissue of zebrafish in a dose-dependent manner
same,latent time for zebrafish to find the EC zone,"zebrafish; food with 25, 50, 100 mg/kg butyrolactone-I for 20 days, AlCl3 intraperitoneally, T maze 24 hours after injection, FIG. 1A",shorten the latent time
same,average swimming speed of zebrafish,"zebrafish; food with 25, 50, 100 mg/kg for 20 days, AlCl3 intraperitoneally, T maze, FIG. 1B",increase the average swimming speed
same,number of times that zebrafish enter the eutrophic EC zone,"zebrafish; food with 25, 50, 100 mg/kg for 20 days, AlCl3 intraperitoneally, T maze, FIG. 1C",add the number of times
same,lingering time of zebrafish in EC area,"zebrafish; food with 25, 50, 100 mg/kg for 20 days, AlCl3 intraperitoneally, T maze, FIGS. 2A-2E",prolong the lingering time
same,memory and cognitive disorder of zebrafish caused by aluminum trichloride,zebrafish; overall conclusion of T maze test,obviously improve
same,level of inflammatory factor IL-1β in the brain of zebrafish,"IL-1β; brain, AlCl3 model, FIG. 3C",reduce the level
same,nerve inflammation of zebrafish caused by aluminum trichloride,IL-1β; overall conclusion of biochemical indexes,obviously improve
same,level of inflammatory factor IL-1β in peripheral tissues of zebrafish,"IL-1β; peripheral tissues, AlCl3 model, FIG. 3D",reduce the level
same,AChE activity in brain tissue of zebrafish,AChE,inhibit AChE activity
same,abundance of Alpinimonas,"[1]; genus level, oral, AlCl3 model",down-regulate
same,abundance of Bacillus,"[1]; genus level, oral, AlCl3 model",up-regulate
same,abundance of Bosea,"[1]; genus level, oral, AlCl3 model",down-regulate
same,abundance of Cetobacterium,"[1]; genus level, oral, AlCl3 model",down-regulate
same,abundance of Mycobacterium,"[1]; genus level, oral, AlCl3 model",down-regulate
same,abundance of Phreatobacter,"[1]; genus level, oral, AlCl3 model",down-regulate
same,abundance of Singulisphaera,"[1]; genus level, oral, AlCl3 model",down-regulate
same,disturbance of zebrafish intestinal flora caused by aluminum trichloride,[1]; overall conclusion,regulate the disturbance
same,abundance of Chlamydiae,[1]; [2],down-regulate
same,abundance of Chloroflexi,[1]; [2],down-regulate
same,abundance of Fusobacterium,[1]; [2],down-regulate
same,abundance of Planctomycetes,[1]; [2],down-regulate
same,abundance of Phylum Firmicutes,"[1]; phylum level, oral, AlCl3 model, FIGS. 4A-4B",up-regulate
same,level of inflammatory factor TNF-α in brain tissues of zebrafish,TNF-α,reduce the level
